Data taken from publication PMC9818267, “Brain Natriuretic Peptide Protects Cardiomyocytes from Apoptosis and Stimulates Their Cell Cycle Re-Entry in Mouse Infarcted Hearts” (Cells, 2022).
No end group written: not given here.

How the values were obtained:
caspase 3+ CMs = assay: Immunostaining of caspase 3+ CMs in infarcted area; format: in vivo, mouse; settings: infarcted area 1 day after MI, BNP vs saline
Protocol: (§1) Cells or OCT heart sections (5 µm-thick cryosections) were washed in PBS 1X and fixed in paraformaldehyde (2%) or formol (4%) for 10 min at RT. After 10 min of permeabilization (0.3% Triton x-100 in PBS) and one hour of blocking with normal serum, sections were probed with primary antibodies overnight at 4 °C (Supplementary File S1). The second day, the secondary antibody was added on cells or heart sections. Slides were mounted with Dabco (Sigma) and pictures were captured with Nikon Eclipse TS100 or 90i microscope. Images were processed with Adobe Photoshop CC2015.

cardiomyocytes (CMs) [1] = assay: Immunostaining of cell cycle markers (BrdU, Ki67, pH3, Aurkb) in CMs of BNP-treated hearts; format: in vivo, mouse
Protocol: For all experiments with adult mice, BrdU (1 mg/mL) was added into the drinking water during the entire period of the experiments. BrdU (40 µL/mice, 10 mg/mL) was ip injected in newborn mice on day 5 and 9 after birth.
as §1
For the detection of BrdU incorporation, heart slides were fixed 10 min in 2% PFA, DNA was denatured 1 h at RT in HCl 2N before neutralization in Na Borate 0.1 M pH = 8.5 during 2 × 5 min. Then, sections were probed with primary antibodies overnight at 4 °C (Supplementary File S1).

adult CMs = assay: Adult CM culture 7 days with BNP; format: cell-based, mouse; settings: 10 nM BNP, 7 days of culture
Protocol: (§2) CM isolations were performed thanks to the Langendorff-Free method. […] Thereafter, the heart was removed from the chest and the left ventricle was perfused with enzymatic solution containing collagenase II (120 U/mL), collagenase IV (120 U/mL) (Worthington, Biochemical Corporation, USA) and protease XIV (0.05 mg/mL or 0.175 U/mL) (Sigma-Aldrich, Merck, Darmstadt, Germany). In each experiment, a full digestion of the heart was obtained. After digestion, cardiac cells were dissociated by gentle pipetting, filtered and collected after 25 min sedimentation. For infarcted hearts, the tissue was separated into the three zones (ZI, BZ and RZ). The three different areas were weighted before gentle pipetting.
qRT-PCR were performed using the SYBR Premix Ex Taq polymerase (Takara Bio Inc., Shiga, Japan) with the ViiA^TM7 Instrument (Applied Biosystems, Waltham, MA, USA). Total RNA was isolated from heart tissue, CM cell cultures and isolated CMs using TRI-Reagent (Zymo Research, Orange County, CA, USA). cDNA was synthesized from RNA using PrimeScript RT reagent kit (Takara Bio Inc.). Polymerase chain reactions (PCR) were performed using the SYBR Premix Ex Taq polymerase (Takara Bio Inc.) with the ViiA^TM7 Instrument (Applied Biosystems). Results were obtained after 40 cycles of a thermal step protocol consisting of an initial denaturation of 95 °C (1 s), followed by 60 °C (20 s) of elongation (α-skeletal actin has an elongation time of 30 s at 60 °C). The sequences of primers were reported in Supplementary File S2. All results were normalized with the 18S housekeeping gene (Δ CT values). Means of ΔΔ CT (Δ CTBNP–Δ CTsaline) values (versus untreated cells or NaCl treated mice) were calculated and results were represented as 2^−ΔΔCT. Statistics were performed on ΔΔ CT individual values. SEM fold increase was calculated using 2^−ΔΔ CT high values − 2^−means of ΔΔCT [13].

Akt = assay: Western blot pAkt/Akt in adult CMs stimulated in vitro; format: cell-based, mouse; settings: adult CMs stimulated with BNP for 2–3 h in vitro, vs untreated
Protocol: as §2
(§3) Total proteins were extracted from CMs isolated from adult infarcted and unmanipulated neonatal and adult hearts. Proteins were transferred to nitrocellulose membranes (Biorad) before incubation with primary antibodies overnight at 4 °C. Secondary antibodies were added 1 h at RT in the dark (Supplementary File S1). The signal was detected and quantified with the Odyssey infrared imaging system (LI-COR. Biosciences, Bad Homburg, Germany). All results were normalized to the tubulin protein level or to the total protein level thanks to stainings with the Revert 700 Total protein Stain (LI-COR).

ERK = assay: Western blot pERK/ERK in adult CMs stimulated in vitro; format: cell-based, mouse; settings: adult CMs stimulated with BNP for 2–3 h in vitro, vs untreated
Protocol: as §2, §3

p38 = assay: Western blot pp38/p38 in adult CMs stimulated in vitro; format: cell-based, mouse; settings: adult CMs stimulated with BNP for 2–3 h in vitro, vs untreated
Protocol: as §2, §3

cardiomyocytes (CMs) [2] = assay: qRT-PCR on CMs isolated from treated hearts; format: in vivo, mouse; settings: CMs from border area of infarcted hearts 10 days after surgery, BNP vs saline
[3] = cited from earlier work
Excerpt: In previous work, we highlighted the cardioprotective effect of BNP intraperitoneal (ip) injections in infarcted mice. Contractility increased twofold and heart remodeling (the percentage of changes of the left ventricle volume) decreased (−79%, p = 0.04) 4 weeks after MI in BNP-treated mice when compared to saline-injected mice. At the cellular level, BNP injections decreased the infarct size by 20% and reduced fibrosis. At least a part of the BNP positive effect in infarcted mice is due to increased cardiac angiogenesis and vasculogenesis. Indeed, BNP stimula ... || The concentrations of BNP used in this study were already shown to stimulate the mobilization, proliferation and differentiation of the endothelial precursor cells. In our first work, we verified that these concentrations have no impact on blood pressure, heart rate and cardiac output. In contrast, these BNP concentrations decrease the heart remodeling, the left ventricular volume and left ventricular end diastolic diameter and increase by 2-fold the contractility, 4 weeks after MI [11]. Furthermore, at the cellular level, these BNP concentrations increase the number of ca ...

[4] = cited from earlier work; remark: listed apart in the source
[5] = infarct and border area 10 days after MI, BNP vs saline
[6] = neonatal BNP-treated hearts vs saline
[7] = unmanipulated adult hearts, BNP vs saline

For “Brain Natriuretic Peptide (SQGSTLRVQQRPQNSKVTHISSCFGHKIDRIGSVSRLGCNALKLL; not fully specified; ends and bridges not checked; UniProt P40753 77-121, looked up) [BNP, synthetic mouse BNP (1–45) peptide (Bachem, catalog number H-7558)]”, the “number of caspase 3+ CMs change” value (caspase 3+ CMs) was −13%, the “increase of percentage of BrdU+ GFP+ α actinin+ cells among GFP+ α actinin+ cells” value (cardiomyocytes (CMs) [1]; ZI+BZ of infarcted Myh6 MerCreMer mice injected with tamoxifen, BNP vs saline) was 20% and the “increase of percentage of CMs expressing Aurkb” value (cardiomyocytes (CMs) [1]; [5]) was 2.8 ×. For the same substance, the “increase of percentage of CMs expressing Ki67” value (cardiomyocytes (CMs) [1]; [5]) was 50%, the “increase of percentage of CMs expressing pH3” value (cardiomyocytes (CMs) [1]; [5]) was 40% and the “increase of percentage of CMs incorporating BrdU” value (cardiomyocytes (CMs) [1]; [5]) was 70%. The “number of Aurkb+ CMs undergoing cytokinesis or binucleation” value (cardiomyocytes (CMs) [1]; infarcted hearts, among Aurkb+ CMs, BNP vs saline) was “slightly increased”, the “increase of number of Aurkb+ CMs undergoing cytokinesis or binucleation” value (cardiomyocytes (CMs) [1]; [6]) was 1.4 fold and the “increase of number of CMs expressing Aurkb” value (cardiomyocytes (CMs) [1]; [6]) was 47.5%. The “increase of number of CMs expressing Ki67” value (cardiomyocytes (CMs) [1]; [6]) was 15%, the “increase of number of CMs expressing pH3” value (cardiomyocytes (CMs) [1]; [6]) was 41% and the “increase of number of CMs incorporating BrdU” value (cardiomyocytes (CMs) [1]; [6]) was 23%. The “increase of percentage of CMs expressing pH3” value (cardiomyocytes (CMs) [1]; [7]) was 94%, the “increase of percentage of CMs incorporating BrdU” value (cardiomyocytes (CMs) [1]; [7]) was 67% and the “Aurkb+ Troponin I+ CMs in culture” value (adult CMs) was “detected only in BNP-treated cell cultures”. The “anf mRNA increase” value (adult CMs; vs untreated) was 70%, the “cyclin E1 mRNA increase” value (adult CMs; vs untreated) was 56% and the “dab2 mRNA increase” value (adult CMs; vs untreated) was 52%. For the same substance, the “runx1 mRNA increase” value (adult CMs; vs untreated) was 62%, the pAkt/Akt ratio increase (Akt) was 2.5 × and the pERK/ERK ratio increase (ERK) was 1.9 ×. The pp38/p38 ratio (p38) was “did not change”, the “myh7 mRNA level increase” value (cardiomyocytes (CMs) [2]) was 2.7 × and the “heart remodeling (percentage of changes of the left ventricle volume) change” value ([3]; 4 weeks after MI, BNP vs saline, p = 0.04) was −79%. For the same substance, the contractility increase ([3]; 4 weeks after MI, BNP vs saline) was “twofold”, the “impact on blood pressure, heart rate and cardiac output” value ([3]; BNP concentrations used in this study) was “no impact” and the “decrease of infarct size” value ([3]; BNP injections in infarcted mice) was 20%. For the same substance, the “half-life in the circulation” value ([4]; healthy persons) was “about 18 min” and the “half-life in the plasma” value ([4]; patients with congestive heart failure) was about 12 min.
